Molecular target: T1, recombinant cGAS (aa147-522) (Homo sapiens, UniProt Q8N884)
T1 construct: recombinant cGAS (aa147-522); His6-SUMO (N, cleaved yes); made in house; host or cells: E. coli BL21/pLys
Experiment: In vitro assay for inhibition of cGAS activity (ATP consumption, Kinase Glo)
Type: biochemical
Settings: 37° C. 20 minutes, read-out: Activity (Inhibition of cGAS enzyme activity in vitro, IC50)
Method: cDNA encoding full-length or amino acids 147-520 of human cGAS is inserted into a modified pET28a vector containing an in-frame His6-SUMO tag. The E. coli strain BL21/pLys harboring the plasmid is induced with 0.5 mM IPTG at 18° C. overnight. His6-SUMO tag was removed by a SUMO proease following purification of the HiS-SUMO-cGAS as described previously (Sun et al, 2013, Science 339, 786).
A40 μL mixture containing 1.5 ng/μL of recombinant cGAS (aa147-522) and serial dilutions of a test compound or DMSO was added to a 96-well plate and incubated at 37° C. for 20 minutes. At the end of reaction, 20 μL of Kinase Glo (Promega) was added and chemiluminescence measured with a luminometer. Inhibitory effect of a compound is evaluated by plotting percentage of ATP consumption against logarithm of compound concentrations. IC50 value was calculated using Graphpad (Sigma).

T1 sequence (Q8N884 147-522): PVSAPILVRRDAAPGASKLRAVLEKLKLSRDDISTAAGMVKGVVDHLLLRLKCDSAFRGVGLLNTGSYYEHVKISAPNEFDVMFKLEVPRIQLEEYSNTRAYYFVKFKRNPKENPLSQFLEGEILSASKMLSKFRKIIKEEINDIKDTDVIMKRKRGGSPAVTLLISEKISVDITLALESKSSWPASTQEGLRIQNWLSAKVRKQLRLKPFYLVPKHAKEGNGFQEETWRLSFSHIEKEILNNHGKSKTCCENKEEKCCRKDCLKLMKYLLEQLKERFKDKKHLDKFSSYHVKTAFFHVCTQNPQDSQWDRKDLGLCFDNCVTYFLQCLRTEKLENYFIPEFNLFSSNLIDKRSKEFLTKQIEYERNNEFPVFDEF

| SMILES | IC50 |
| --- | --- |
| COc1ncc(COc2cc(/C=C3\SC(=O)N(C)C3=O)c(Br)cc2O)cn1 [Ex143] | 500 to 10000 nM |
| CSc1ncc(COc2cc(/C=C3\SC(=O)N(C)C3=O)c(Br)cc2O)cn1 [Ex144] | 500 to 10000 nM |
| CN1C(=O)S/C(=C\c2cc(OCc3cnc(-c4ccccc4)nc3)c(O)cc2Br)C1=O [Ex145] | 500 to 10000 nM |
| CN1C(=O)S/C(=C\c2cc(OCc3cnc(-c4ccncc4)nc3)c(O)cc2Br)C1=O [Ex146] | ≤ 500 nM |
| CC(C)Nc1ncc(COc2cc(/C=C3\SC(=O)N(C)C3=O)c(Br)cc2O)cn1 [Ex150] | 500 to 10000 nM |
| CC(C)CNc1ncc(COc2cc(/C=C3\SC(=O)N(C)C3=O)c(Br)cc2O)cn1 [Ex151] | 500 to 10000 nM |
| CN1C(=O)S/C(=C\c2cc(OCc3cnc(NCc4ccccc4)nc3)c(O)cc2Br)C1=O [Ex154] | 500 to 10000 nM |
| CN1C(=O)S/C(=C\c2cc(OCc3cnc(Nc4ccccc4)nc3)c(O)cc2Br)C1=O [Ex158] | 500 to 10000 nM |
| CN1C(=O)S/C(=C\c2cc(OCc3cnc(Nc4cccnc4)nc3)c(O)cc2Br)C1=O [Ex159] | 500 to 10000 nM |
| CN1C(=O)S/C(=C\c2cc(OCc3cnc(Nc4ccncc4)nc3)c(O)cc2Br)C1=O [Ex160] | ≤ 500 nM |
| CN1C(=O)S/C(=C\c2cc(OCc3cnc(NC(=O)c4ccncc4)nc3)c(O)cc2Br)C1=O [Ex161] | ≤ 500 nM |
| CN1C(=O)S/C(=C\c2cc(OCc3cnc(N(C)C)nc3)c(O)cc2Br)C1=O [Ex162] | ≥ 10000 nM |
| CN1C(=O)S/C(=C\c2cc(OCc3cnc(N4CCCC4)nc3)c(O)cc2Br)C1=O [Ex163] | ≥ 10000 nM |
| CN1C(=O)S/C(=C\c2cc(OCc3cnc(N4CCCCC4)nc3)c(O)cc2Br)C1=O [Ex164] | ≥ 10000 nM |
| CN1C(=O)S/C(=C\c2cc(OCc3cnc(N4CCOCC4)nc3)c(O)cc2Br)C1=O [Ex166] | ≥ 10000 nM |
| CN1CCN(c2ncc(COc3cc(/C=C4\SC(=O)N(C)C4=O)c(Br)cc3O)cn2)CC1 [Ex167] | 500 to 10000 nM |
| CN1C(=O)S/C(=C\c2cc(OCc3cnc(-n4ccnc4)nc3)c(O)cc2Br)C1=O [Ex168] | 500 to 10000 nM |
| CN1C(=O)S/C(=C\c2cc(OCc3cnc(-n4cccn4)nc3)c(O)cc2Br)C1=O [Ex169] | 500 to 10000 nM |

| SMILES | IC50 |
| --- | --- |
| CN1C(=O)S/C(=C\c2cc(OCc3cnc(N)nc3C(F)(F)F)c(O)cc2Br)C1=O [Ex172] | ≤ 500 nM |
| CN1C(=O)S/C(=C\c2cc(OCc3cccc4cnccc34)c(O)cc2Br)C1=O [Ex173] | 500 to 10000 nM |
| CN1C(=O)S/C(=C\c2cc(OCc3ccc4ncccc4c3)c(O)cc2Br)C1=O [Ex174] | ≥ 10000 nM |
| CN1C(=O)S/C(=C\c2cc(OCc3ccc4cccnc4c3)c(O)cc2Br)C1=O [Ex175] | 500 to 10000 nM |
| CN1C(=O)S/C(=C\c2cc(OCc3cncc4ccccc34)c(O)cc2Br)C1=O [Ex176] | 500 to 10000 nM |
| CN1C(=O)S/C(=C\c2cc(OCc3ccnc4ccccc34)c(O)cc2Br)C1=O [Ex178] | 500 to 10000 nM |
| CN1C(=O)S/C(=C\c2cc(OCCc3ccncc3)c(O)cc2Br)C1=O [Ex179] | 500 to 10000 nM |
| Cc1ncc(C(C)Oc2cc(/C=C3\SC(=O)N(C)C3=O)c(Br)cc2O)cn1 (centres unmarked) [Ex180] | 500 to 10000 nM |
| CC(Oc1cc(/C=C2\SC(=O)N(C)C2=O)c(Br)cc1O)c1cnc(NCCO)nc1 (centres unmarked) [Ex181] | 500 to 10000 nM |
| COCCNc1ncc(C(C)Oc2cc(/C=C3\SC(=O)N(C)C3=O)c(Br)cc2O)cn1 (centres unmarked) [Ex182] | 500 to 10000 nM |
| Cc1nc(N)ncc1C(C)Oc1cc(/C=C2\SC(=O)N(C)C2=O)c(Br)cc1O (centres unmarked) [Ex183] | 500 to 10000 nM |
| Cc1ncc(COc2cc(/C=C3\SC(=O)N(C)C3=O)c(Br)cc2O)cn1 [Ex186] | 500 to 10000 nM |
| CNc1ncc(COc2cc(/C=C3\SC(=O)N(C)C3=O)c(Br)c(F)c2O)cn1 [Ex187] | ≤ 500 nM |
| CN1C(=O)S/C(=C\c2cc(OCc3cnc(NCc4ccccn4)nc3)c(O)c(F)c2Br)C1=O [Ex188] | 500 to 10000 nM |
| CN1C(=O)S/C(=C\c2cc(OCc3cnc(NCc4ccncc4)nc3)c(O)c(F)c2Br)C1=O [Ex190] | ≤ 500 nM |
| CN1C(=O)S/C(=C\c2cc(OCc3cnc(NC(=O)c4ccncc4)nc3)c(O)c(F)c2Br)C1=O [Ex191] | ≤ 500 nM |
| CC(Oc1cc(/C=C2\SC(=O)N(C)C2=O)c(Br)c(F)c1O)c1cncnc1 (centres unmarked) [Ex192] | 500 to 10000 nM |

Source: US12065416B2, “cGAS antagonist compounds” (IMMUNESENSOR THERAPEUTICS, INC., priority 2016, dated 2024)
